Patent US20230382869A1, “Phenyl-3,4-dihydroisoquinolin-2(1h)-yl-ethan-1-one derivatives as dopamine d1receptor positive allosteric modulators” (Eli Lilly and Company, priority 2020, published 2023)
Like-named read-outs stand apart in the source and are kept apart here.

What was measured:
[1] = Plasma and Brain Levels after oral dosing; assay type: in vivo, mouse; details: for Kp uu at 1 h: ratio Cu,brain vs Cu,plasma
Method: (§1) Example 7, 2-(2-chloro-6-fluoro-phenyl)-1-[(1S,3R)-6-fluoro-3-(hydroxymethyl)-5-(3-hydroxy-3-methyl-butyl)-1-methyl-3,4-dihydro-1H-isoquinolin-2-yl]ethenone, was orally dosed to male mouse from 3 mg/kg to 60 mg/kg in fed condition, and the plasma and brain concentration was determined 1 hr post-dose. The fraction unbound of the compound was determined in vitro as described previously (Zamek-Gliszczynski M J, et al., Validation of 96-well equilibrium dialysis with non-radiolabeled drug for definitive measurement of protein binding and application to clinical development of highly-bound drugs, J. Pharm. Sci. (2011) 100: 2498-2507). The ratio (Kpuu) of unbound brain concentration (Cu, brain) vs. unbound plasma concertation (Cu, plasma) was determined as described previously (Raub T J, et al., Brain Exposure of Two Selective Dual CDK4 and CDK6 Inhibitors and the Antitumor Activity of CDK4 and CDK6 Inhibition in Combination with Temozolomide in an Intracranial Glioblastoma Xenograft. Drug Metab. Dispos. (2015) 43:1360-71). The data presented below in Table 3 for Example 7 are averages from 3 animals at each dose. “Con.” refers to concentration.

[2] = Passive permeability in MDCKII cell line (Papp); assay type: in vitro ADME; details: dog, MDCK
Description: Papp is the passive permeability measured in MDCKII cell line in house

[3] = Fraction escaping first-pass gut metabolism (FG); parameters: species or system human; details: calculated
Description: The estimation of fraction metabolized in the gut may be determined using the following equation found in Yang J, et al. (2007) Prediction of intestinal first-pass drug metabolism. Curr Drug Metab 8:676-684:
FG=Qgut/(Qgut+fugut×Clint CYP3A,gut)
Qgut=Qvilli×Clperm/(Qvilli+Clperm)
Clperm═Papp×Intestinal surface area
Clint,CYP3A,gut=CLint,CYP3A,liver/fumic×microsomal protein in gut (mg)×0.4 (in house calculation) Where Qgut is a hybrid flow term dependent upon the villous blood flow and permeability of the compound fugut is the fraction of drug unbound in the enterocyte
Qvilli is villous blood flow
Clperm is the clearance term defining permeability through the enterocyte
Papp is the passive permeability measured in MDCKII cell line in house fumic is the fraction of drug unbound in human liver microsomes
Human intestine parameters are from Yang et al., 2007, and Gertz M, et al. (2010) Prediction of human intestinal first-pass metabolism of 25 CYP3A substrates from in vitro clearance and permeability data. Drug Metab Dispos 38:1147-1158.

[4] = Renal and biliary excretion in bile-duct cannulated dogs; assay type: in vivo, dog
Method: The renal and biliary excretion of test compounds is tested in bile-duct cannulated dogs essentially according to Burkey J L, et al. (2002) Disposition of LY333531, a selective protein kinase C beta inhibitor, in the Fischer 344 rat and beagle dog. Xenobiotica 32:1045-1052. The compound of Example 7 is tested essentially as described and its renal and biliary excretion is found to be negligible. The fraction of compound cleared through CYP3A4 metabolism is calculated using the equation below: […]

[5] = Fraction unbound in vitro (equilibrium dialysis); assay type: in vitro ADME
Method: as §1

[6] = molecular target: CYP3A4 (Homo sapiens (Human), UniProt P08684); experiment: Recombinant CYP phenotyping assay (fmCYP3A4_RCP); assay type: in vitro ADME; details: not examined in RCP assay; worst case of 100% metabolized by CYP3A4 assumed
Method: The relative fraction of a compound's metabolism contributed by a given CYP, as for example CYP3A4, of the total P450 metabolism of the compound may be determined as follows:
A panel of 9 human recombinant CYPs (rCYPs) provided as Supersomes (BD Gentest, Woburn, MA), including rCYPs 1A2, 2B6, 2C8, 2C9, 2C19, 2D6, 2J2, 3A4, and 3A5, are evaluated for compound metabolism (see generally Cannady E A, et al. (2015) Evacetrapib: in vitro and clinical disposition, metabolism, excretion, and assessment of drug interaction potential with strong CYP3A and CYP2C8 inhibitors. Pharmacol Res Perspect 3:e00179). […]
in which kdep is the substrate depletion rate constant (min^−1), pmol rCYP is the lot-specific amount of rCYP in the incubation, and relative activity factor (RAF) is a relative activity factor (pmol/mg) appropriate for the rCYPs/HLMs pair. The rate constant is determined in-house by experiment, the slope determined using linear regression from the log transformed % remaining on the y-axis vs time on the x-axis (min^−1). pmol rCYP and RAF are vender supplied constenats for the supersome.
The fraction of CYP3A4-mediated metabolism (fmCYP3A4_RCP) is determined by dividing the HLM-scaled CLint of CYP3A4 by the sum of the HLM-scaled CL1nt for each P450 subtype assayed (Cannady et al., 2015).

[7] = In vivo tolerability in normal rats; details: broad dose range

C[C@H]1c2ccc(F)c(CCC(C)(C)O)c2C[C@H](CO)N1C(=O)Cc1c(F)cccc1Cl [Example 7, 2-(2-chloro-6-fluoro-phenyl)-1-[(1S,3R)-6-fluoro-3-(hydroxymethyl)-5-(3-hydroxy-3-methyl-butyl)-1-methyl-3,4-dihydro-1H-isoquinolin-2-yl]ethanone]
concentration at 1 h ([1]; brain, 3 mg/kg oral, 1 hr post-dose, male mouse, fed, read-out: Brain con.): 18 nM | concentration at 1 h ([1]; brain, 6 mg/kg oral, 1 hr post-dose, male mouse, fed, read-out: Brain con.): 45.1 nM | concentration at 1 h ([1]; brain, 10 mg/kg oral, 1 hr post-dose, male mouse, fed, read-out: Brain con.): 84.9 nM | concentration at 1 h ([1]; brain, 30 mg/kg oral, 1 hr post-dose, male mouse, fed, read-out: Brain con.): 557 nM | concentration at 1 h ([1]; brain, 60 mg/kg oral, 1 hr post-dose, male mouse, fed, read-out: Brain con.): 1290 nM | Kp uu at 1 h ([1]; male, mouse, 3 mg/kg oral, 1 hr): 0.126 | Kp uu at 1 h ([1]; male, mouse, 6 mg/kg oral, 1 hr): 0.143 | Kp uu at 1 h ([1]; male, mouse, 10 mg/kg oral, 1 hr): 0.122 | Kp uu at 1 h ([1]; male, mouse, 30 mg/kg oral, 1 hr): 0.194 | Kp uu at 1 h ([1]; male, mouse, 60 mg/kg oral, 1 hr): 0.248 | concentration at 1 h ([1]; male, mouse, unbound brain concentration, 3 mg/kg oral, 1 hr, read-out: Cu, brain): 0.448 nM | concentration at 1 h ([1]; male, mouse, unbound brain concentration, 6 mg/kg oral, 1 hr, read-out: Cu, brain): 1.12 nM | concentration at 1 h ([1]; male, mouse, unbound brain concentration, 10 mg/kg oral, 1 hr, read-out: Cu, brain): 2.11 nM | concentration at 1 h ([1]; male, mouse, unbound brain concentration, 30 mg/kg oral, 1 hr, read-out: Cu, brain): 13.9 nM | concentration at 1 h ([1]; male, mouse, unbound brain concentration, 60 mg/kg oral, 1 hr, read-out: Cu, brain): 32.1 nM | concentration at 1 h ([1]; male, mouse, unbound plasma concentration, 3 mg/kg oral, 1 hr, read-out: Cu, plasma): 4.97 nM | concentration at 1 h ([1]; male, mouse, unbound plasma concentration, 6 mg/kg oral, 1 hr, read-out: Cu, plasma): 9.62 nM | concentration at 1 h ([1]; male, mouse, unbound plasma concentration, 10 mg/kg oral, 1 hr, read-out: Cu, plasma): 17.1 nM | concentration at 1 h ([1]; male, mouse, unbound plasma concentration, 30 mg/kg oral, 1 hr, read-out: Cu, plasma): 70.1 nM | concentration at 1 h ([1]; male, mouse, unbound plasma concentration, 60 mg/kg oral, 1 hr, read-out: Cu, plasma): 128 nM | concentration at 1 h ([1]; plasma, 3 mg/kg oral, 1 hr post-dose, male mouse, fed, read-out: Plasma con.): 353 nM | concentration at 1 h ([1]; plasma, 6 mg/kg oral, 1 hr post-dose, male mouse, fed, read-out: Plasma con.): 682 nM | concentration at 1 h ([1]; plasma, 10 mg/kg oral, 1 hr post-dose, male mouse, fed, read-out: Plasma con.): 1210 nM | concentration at 1 h ([1]; plasma, 30 mg/kg oral, 1 hr post-dose, male mouse, fed, read-out: Plasma con.): 4980 nM | concentration at 1 h ([1]; plasma, 60 mg/kg oral, 1 hr post-dose, male mouse, fed, read-out: Plasma con.): 9080 nM | Papp [2]: 37.9 ×10⁻⁶ cm/s | FG [3]: 0.78 | renal and biliary excretion [4]: negligible | fraction unbound ([5]; fraction unbound in brain, read-out: fu, brain): 0.0249 | fraction unbound ([5]; fraction unbound in plasma, read-out: fu, plasma): 0.0141 | fm3A4_RCP [6]: 1 | tolerability / toxicity in vivo [7]: generally well tolerated
